The text below walks through data of patent publication US20240254138A1, “TRICYCLIC PYRIMIDINES AS CYCLIN-DEPENDENT KINASE 7 (CDK7) INHIBITORS” (JANSSEN PHARMACEUTICA NV, priority 2021, published 2024).

In general, kinact refers to the rate constant of inactivation at saturating inhibitor.

This test concerns the target CDK7/cyclinH/MAT1 trimeric complex (Homo sapiens, UniProt P50613). The experiment in a line: In vitro CDK7 assay, potency of irreversible covalent inhibitors (kinact/KI), coupled PK/LDH ADP readout at 340 nm.
[1] abbreviates: CDK7 (20 nM enz.) (KI, μM), 20 nM enzyme.
Where [2] appears, read: read-out: CDK7 (20 nM enz.) (kinact, s^−1), 20 nM enzyme.
Where [3] appears, read: read-out: CDK7 (20 nM enz.) (kinact/KI, M^−1*s^−1), 20 nM enzyme.
Setting [4] is: read-out: CDK7 (20 nM enz.) (kobs/[I], M^−1*s^−1), 20 nM enzyme.

Each structure is given as a SMILES string. Read-outs that look alike come from different tables or passages of the source.

CDK7/cyclinH/MAT1 trimeric complex, sequence (P50613 whole entry): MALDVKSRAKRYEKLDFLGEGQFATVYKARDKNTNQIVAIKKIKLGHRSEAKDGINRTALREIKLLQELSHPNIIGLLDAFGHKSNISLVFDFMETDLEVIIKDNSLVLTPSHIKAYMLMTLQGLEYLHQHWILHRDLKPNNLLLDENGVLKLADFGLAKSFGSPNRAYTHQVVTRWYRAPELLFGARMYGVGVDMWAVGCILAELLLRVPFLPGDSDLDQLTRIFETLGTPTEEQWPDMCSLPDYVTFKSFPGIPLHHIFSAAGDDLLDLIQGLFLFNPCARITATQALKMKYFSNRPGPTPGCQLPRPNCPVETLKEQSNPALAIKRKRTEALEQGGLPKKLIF
CDK7/cyclinH/MAT1 trimeric complex, sequence (P51946 whole entry partner): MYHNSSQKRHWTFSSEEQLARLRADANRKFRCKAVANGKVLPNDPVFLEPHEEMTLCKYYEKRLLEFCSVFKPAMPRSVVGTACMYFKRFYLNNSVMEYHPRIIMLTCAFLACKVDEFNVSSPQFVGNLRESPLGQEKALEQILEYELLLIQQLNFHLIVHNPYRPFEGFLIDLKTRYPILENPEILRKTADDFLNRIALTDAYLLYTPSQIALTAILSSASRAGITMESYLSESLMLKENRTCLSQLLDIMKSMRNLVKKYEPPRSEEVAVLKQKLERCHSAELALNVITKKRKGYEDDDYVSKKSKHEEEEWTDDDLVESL
CDK7/cyclinH/MAT1 trimeric complex, sequence (P51948 whole entry partner): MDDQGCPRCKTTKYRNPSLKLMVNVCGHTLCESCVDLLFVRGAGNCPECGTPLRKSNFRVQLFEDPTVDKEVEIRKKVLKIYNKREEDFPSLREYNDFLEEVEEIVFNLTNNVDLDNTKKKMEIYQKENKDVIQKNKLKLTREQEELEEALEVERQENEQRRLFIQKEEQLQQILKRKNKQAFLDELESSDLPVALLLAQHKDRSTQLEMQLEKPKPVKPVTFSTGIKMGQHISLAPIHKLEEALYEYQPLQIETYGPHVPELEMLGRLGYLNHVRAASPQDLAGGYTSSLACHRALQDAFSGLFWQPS

`C=CC(=O)N1CC(N2CCC(c3cc4c(cn3)O[C@@H](C)c3c(N5CCOCC5)ccnc3N4)CC2)C1` (single isomer, unassigned) [Compound 172] came in with a Ki under setting [1] of 1.4 µM. In addition, the maximal inactivation rate constant (kinact) under setting [2] is 5.53e-05 s⁻¹. The kinact/KI under setting [3] was determined as 39.4 M⁻¹ s⁻¹.

In the case of `C=CC(=O)N1CC(N2CCC(c3ccc4c(c3)Nc3nccc(N5CCOCC5)c3[C@@H](C)O4)CC2)C1` (single isomer, unassigned) [compound 90], under setting [4], the kinact/KI is 1190 M⁻¹ s⁻¹.

`C=CC(=O)N1CC(N2CCC(c3cc4c(cn3)O[C@H](C)c3c(N5CCOCC5)ccnc3N4)CC2)C1` (single isomer, unassigned) [compound 171] gave a Ki under setting [1] of 0.0278 µM. The kinact under setting [2] came to 5.15e-05 s⁻¹. Under setting [3], the kinact/KI is 1850 M⁻¹ s⁻¹.

`C=CC(=O)N1CC[C@@H](N2CC(c3cc4c(c(C)n3)OCc3c(N5CCOCC5)ccnc3N4)C2)C1` (single isomer, unassigned) [compound 179] came in with a Ki under setting [1] of 0.0606 µM. The kinact under setting [2] was found to be 5.08e-05 s⁻¹. Also, the kinact/KI under setting [3] turned out to be 839 M⁻¹ s⁻¹.

Under setting [1], `C=CC(=O)N1CC[C@H](N2CC(c3cc4c(c(C)n3)OCc3c(N5CCOCC5)ccnc3N4)C2)C1` (single isomer, unassigned) [compound 180] returned a Ki of 0.0452 µM. Moreover, the inactivation rate constant (kinact) under setting [2] was found to be 5.34e-05 s⁻¹. In addition, the kinact/KI under setting [3] came out at 1180 M⁻¹ s⁻¹.

For the compound `C=CC(=O)N1CC(N2CC(c3cc4c(cn3)O[C@@H](C)c3c(-c5cnn(C)c5)ccnc3N4)C2)C1` (single isomer, unassigned) [compound 300], the Ki under setting [1] turned out to be 2.63 µM. Besides, the kinact under setting [2] came to 3.59e-05 s⁻¹. For the same compound, the kinact/KI under setting [3] was 13.7 M⁻¹ s⁻¹.

`C=CC(=O)N1CC[C@@H](N2CC(c3cc4c(c(C)n3)O[C@@H](C)c3c(-c5cnn(C)c5)ccnc3N4)C2)C1` (single isomer, unassigned) [compound 420] showed a Ki under setting [1] of 7.92 µM. Under setting [2], the inactivation rate constant (kinact) was 4.55e-05 s⁻¹. The kinact/KI under setting [3] amounted to 5.74 M⁻¹ s⁻¹.

`C=CC(=O)N1CC(N2CCC(c3cc4c(c(C)n3)O[C@H](C)c3c(C5CCOCC5)ccnc3N4)CC2)C1` (single isomer, unassigned) [compound 429]: the Ki under setting [1] was 0.0672 µM. The kinact under setting [2] was found to be 9.76e-05 s⁻¹. For the same compound, the kinact/KI under setting [3] is 1450 M⁻¹ s⁻¹.

As for `CC#CC(=O)N1CC(N2CC(c3cc4c(c(C)n3)O[C@H](C)c3c(N5CCOCC5)ccnc3N4)C2)C1` (single isomer, unassigned) [compound 444], for the setting “20 nM enzyme”, the “CDK7 (20 nM enz.) (kinact, s^−1)” value is 4.506e-05 s⁻¹ and the “CDK7 (20 nM enz.) (kinact/KI, M^−1*s^−1)” value came to 242.644 M⁻¹ s⁻¹. Besides, under setting [1], the Ki worked out at 0.186 µM.

For the setting “CDK7 (KI(μM)), […], 1 mM ATP, room temperature, averaged values over all measurements”, `C=CC(=O)N1CC(N2CCC(c3ccc4c(c3)Nc3nccc(N5CCOCC5)c3CO4)C(C)(C)C2)C1` (stereo not drawn) [Compound 41] showed a Ki of 0.083 µM. Further, under “read-out: CDK7 (kinact, s^−1), kinact = maximal rate of inactivation, 1 mM ATP, room temperature, averaged values over all measurements”, the inactivation rate constant (kinact) came to 8.37e-05 s⁻¹. For the same compound, the kinact/KI (read-out: CDK7 (kinact/KI, M^−1*s^−1), potency of irreversible covalent inhibitors, 1 mM ATP, room temperature, averaged values over all measurements) is 1010 M⁻¹ s⁻¹.

As to `C=CC(=O)N1CC(N2CCC(c3cc(C)c4c(c3)Nc3nccc(N5CCS(=O)(=O)CC5)c3CO4)CC2)C1` [Compound 75], under setting [4], the kinact/KI worked out at 1100 M⁻¹ s⁻¹.

As for `C=CC(=O)N1CC(N2CCC(c3cc4c(c(C)n3)OCc3c(C5CCOCC5)ccnc3N4)CC2)C1` [compound 208], under setting [1], the Ki was found to be 0.168 µM. Moreover, under setting [2], the inactivation rate constant (kinact) amounted to 4.84e-05 s⁻¹. Further, the kinact/KI under setting [3] worked out at 287 M⁻¹ s⁻¹.

Turning to `C#CCCN(C)C/C=C/C(=O)N1CC(N2CCC(c3cc(Cl)c4c(c3)Nc3nccc(C5CCOCC5)c3CO4)CC2)C1` [compound 249], under setting [4], the kinact/KI was 1040 M⁻¹ s⁻¹.

Under setting [1], `C=CC(=O)N1CC(c2nc(C)c(-c3cc4c(c(C)n3)OCc3c(N5CCOCC5)ccnc3N4)c(C)n2)C1` [compound 277] yielded a Ki of 0.156 µM. Also, the maximal inactivation rate constant (kinact) under setting [2] worked out at 4.48e-05 s⁻¹. Also, the kinact/KI under setting [3] amounted to 287 M⁻¹ s⁻¹.

With `C=CC(=O)N1CCC(N2CCC(c3cc4c(c(C)n3)OCc3c(N5CCOCC5)ccnc3N4)CC2)CC1` [compound 324], the Ki under setting [1] turned out to be 0.0237 µM. For the same compound, under setting [2], the inactivation rate constant (kinact) was found to be 5.03e-05 s⁻¹. Moreover, the kinact/KI under setting [3] came out at 2120 M⁻¹ s⁻¹.

The compound `C=CC(=O)N1CC(N2CC(c3cc4c(c(P(C)(C)=O)n3)OCc3c(N5CCOCC5)ccnc3N4)C2)C1` [compound 331] registered a Ki under setting [1] of 0.204 µM. Also, under setting [2], the kinact was 6.25e-05 s⁻¹. The kinact/KI under setting [3] was found to be 306 M⁻¹ s⁻¹.
